Source: publication PMC12833730, “Discovery of a First‐in‐Class Covalent Allosteric SHP1 Inhibitor with Immunotherapeutic Activity” (Angewandte Chemie (International Ed. in English), 2025)
Values joined by “and” are separate entries in the source; they are usually repeats but may differ in a detail not shown here. Equal values may be shown once. Read-outs that look alike come from different tables or passages of the source.

Assays:
[1] = biological target: T1, SHP1 (Homo sapiens, UniProt P29350); test: Time-course pNPP progress-curve inactivation kinetics; assay type: biochemical; details: for k inact/K I for SHP1 inactivation: time-course pNPP assay
T1 construct: SHP1, residues 245-543; made in house; host or cells: E. coli BL21(DE3)
Text: Covalent inhibitors generally inactivate their targets through a two‐step process, starting with a reversible binding event (characterized by the dissociation constant K I) and followed by covalent bond formation (represented by the first‐order rate constant of inactivation k inact). Although IC50 values are often utilized to assess the potency of covalent inhibitors, the second‐order rate constant k inact/K I is preferred because it provides a measure of covalent inhibition in a time‐ and dose‐independent manner.^[ [60], [62], [67], [68] ^] Because k inact/K I measurement can be time and labor‐intensive, we developed an efficient method to determine the observed first‐order rate constant (k obs) from the analysis of a progress curve in the presence of an inhibitor.^[ [69] ^] The k obs value is then plotted as a function of inhibitor concentration to obtain the kinetic parameters k inact, K I, and k inact/K I.^[ [70] ^] […] To verify SHP1 covalent modification by Z57117023, we ascertained SHP1 covalent adduct formation by intact protein liquid chromatography‐mass spectrometry (LC‐MS).^[ [58] ^] A single SHP1‐Z57117023 adduct was observed when SHP1 was incubated with Z57117023, with a mass shift of 295.21 Da (calculated 295.54 Da) (Figure 1e), consistent with the loss of a chlorine atom from Z57117023.
Phosphatase Activity Assay: To determine the inhibition kinetics of acquired hits, repurchased compounds from Enamine were serially diluted in a 96-well plate followed by the addition of pNPP at Km concentrations of corresponding proteins. The reaction was initiated by the addition of 20 nM proteins, and the reaction progression was monitored at OD405 using a CLARIOstar Plus Microplate Spectrophotometer (BMG Labtech) for 60 minutes. After background subtraction, the obtained progress curves were fitted to the equation A = v0(1-e^-kt)/k, where A is the absorbance at 405 nm, v0 is the initial rate, k is the kobs of the corresponding reaction. The acquired kobs was then plotted against inhibitor concentrations, which were fitted to kobs = kinact[I]/(KI+[I]), where kinact is the maximum rate of inactivation, [I] is the inhibitor concentration, and KI is the reversible binding affinity of the compound to the protein. Data were fitted using Prism GraphPad 10.1.1.

[2] = biological target: T1, SHP1; test: Intact protein LC-MS covalent adduct formation; assay type: binding; details: 60 min, room temperature, pH 7.0; single adduct
Procedure: (§1) The moderate half‐life in the presence of excessive GSH implied the low intrinsic reactivity of Z57117023. e) SHP1 protein was incubated with or without Z57117023 in 3,3‐dimethylglutarate buffer (pH = 7.0) for 60 min at room temperature to form a covalent adduct.
Covalent inhibitors generally inactivate their targets through a two‐step process, starting with a reversible binding event (characterized by the dissociation constant K I) and followed by covalent bond formation (represented by the first‐order rate constant of inactivation k inact). Although IC50 values are often utilized to assess the potency of covalent inhibitors, the second‐order rate constant k inact/K I is preferred because it provides a measure of covalent inhibition in a time‐ and dose‐independent manner.^[ [60], [62], [67], [68] ^] […] A single SHP1‐Z57117023 adduct was observed when SHP1 was incubated with Z57117023, with a mass shift of 295.21 Da (calculated 295.54 Da) (Figure 1e), consistent with the loss of a chlorine atom from Z57117023.
The mixtures were centrifuged to remove the unfolded SHP1 proteins, and the supernatants were spiked with a control protein CDC14A, followed by loading into SDS‐PAGE gels to quantify the relative SHP1 level.

[3] = Intrinsic reactivity toward GSH, LC-MS; assay type: physicochemical
Procedure: as §1
(§2) The area under the curve (AUC) of each measurement was normalized to 10 µM compounds to calculate the percent remaining. Data were fitted using Prism GraphPad 10.1.1.

[4] = test system: GSH; test: Intrinsic reactivity toward GSH, LC-MS; assay type: physicochemical; details: GSH in 3,3-dimethylglutarate (DMG) buffer, LC-MS
Procedure: as §1, §2

[5] = biological target: T2, SHP2 (Homo sapiens, UniProt Q06124); test: IC50 after preincubation, DiFMUP phosphatase assay; assay type: biochemical
T2 construct: SHP2, residues 224-528; made in house; host or cells: E. coli BL21(DE3)
T2 sequence (Q06124 224-528): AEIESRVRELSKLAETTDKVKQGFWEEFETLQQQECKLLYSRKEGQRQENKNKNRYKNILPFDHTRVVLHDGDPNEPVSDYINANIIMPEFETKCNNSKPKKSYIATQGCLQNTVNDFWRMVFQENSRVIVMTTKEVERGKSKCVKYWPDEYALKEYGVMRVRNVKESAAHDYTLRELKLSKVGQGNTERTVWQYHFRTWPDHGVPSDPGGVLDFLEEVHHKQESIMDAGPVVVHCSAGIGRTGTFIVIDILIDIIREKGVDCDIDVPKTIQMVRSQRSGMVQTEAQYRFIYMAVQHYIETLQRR
Procedure: (§3) To further confirm the time-dependent inhibition and determine the IC50 of acquired hits, repurchased compounds from Enamine were serially diluted in a 96-well plate, followed by the addition of proteins at 200 nM. After 10-minute and 60-minute preincubation, 2 µL of the mixture was transferred into 100 µM 6,8-Difluoro-4-Methylumbelliferyl Phosphate (DiFMUP, Invitrogen, cat# D6567) at a final volume of 200 µL. The reaction was allowed to proceed for 5 minutes and quenched by the addition of 40 µl of a 160 µM solution of bpV(Phen) (Sigma-Aldrich, cat# SML0889). The fluorescence signal was measured using a CLARIOstar Plus Microplate Spectrophotometer (BMG Labtech) using excitation and emission wavelengths of 340 nm and 450 nm, respectively. Data were fitted using Prism GraphPad 10.1.1.

[6] = biological target: T3, PTPN22 (Homo sapiens, UniProt Q9Y2R2); test: IC50 after preincubation, DiFMUP phosphatase assay; assay type: biochemical
T3 construct: LYP/PTPN22, residues 1-294; made in house; host or cells: E. coli BL21(DE3)
T3 sequence (Q9Y2R2 1-294): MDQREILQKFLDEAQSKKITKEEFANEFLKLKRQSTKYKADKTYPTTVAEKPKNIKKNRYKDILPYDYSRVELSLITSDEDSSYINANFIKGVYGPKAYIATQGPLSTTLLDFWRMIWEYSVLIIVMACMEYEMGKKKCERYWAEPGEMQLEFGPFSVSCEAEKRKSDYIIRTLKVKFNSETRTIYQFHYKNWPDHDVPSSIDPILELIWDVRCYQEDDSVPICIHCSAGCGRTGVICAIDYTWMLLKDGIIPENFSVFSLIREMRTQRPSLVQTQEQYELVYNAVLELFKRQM
Procedure: as §3

[7] = biological target: T4, PTP1B (Homo sapiens, UniProt P18031); test: IC50 after preincubation, DiFMUP phosphatase assay; assay type: biochemical
T4 construct: PTP1B, residues 1-321; made in house; host or cells: E. coli BL21(DE3)
Procedure: as §3

[8] = pH 7, 100-fold excess GSH, pH 7.0, room temperature, read-out: half-life (t1/2) toward excess GSH (converted)

T1 sequence (P29350 245-543): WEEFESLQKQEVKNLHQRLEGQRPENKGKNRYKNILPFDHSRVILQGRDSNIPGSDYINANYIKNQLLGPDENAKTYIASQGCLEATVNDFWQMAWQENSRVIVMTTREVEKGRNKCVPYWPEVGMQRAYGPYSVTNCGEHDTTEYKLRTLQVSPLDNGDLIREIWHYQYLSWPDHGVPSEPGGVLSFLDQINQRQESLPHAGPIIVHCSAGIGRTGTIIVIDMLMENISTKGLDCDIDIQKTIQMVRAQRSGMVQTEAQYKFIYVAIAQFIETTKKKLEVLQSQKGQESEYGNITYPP
T4 sequence (P18031 1-321, species assumed): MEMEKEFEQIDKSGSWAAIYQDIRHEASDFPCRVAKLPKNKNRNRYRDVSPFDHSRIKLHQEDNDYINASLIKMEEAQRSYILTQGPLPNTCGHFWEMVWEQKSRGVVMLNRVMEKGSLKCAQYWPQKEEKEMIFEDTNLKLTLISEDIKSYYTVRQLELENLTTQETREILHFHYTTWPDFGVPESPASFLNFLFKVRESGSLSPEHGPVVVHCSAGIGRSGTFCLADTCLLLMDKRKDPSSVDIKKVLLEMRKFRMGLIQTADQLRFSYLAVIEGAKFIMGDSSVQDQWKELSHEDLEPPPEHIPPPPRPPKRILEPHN

SMILES	k inact ([1]; pH 7.0, room temperature) [s⁻¹]	KI (inactivation) ([1]; pH 7.0, room temperature, read-out: K I) [µM]	k inact/K I for SHP1 inactivation [1] [M⁻¹ s⁻¹]	k inact/K i fold higher than that of Z57117023 ([1]; vs Z57117023) [fold]	mass shift of SHP1 covalent adduct [2]	fold less reactive toward GSH than Z57117023 ([3]; vs Z57117023) [fold]	half-life at 10 µM [4, 8] [h]	IC50 ([5]; 60-min preincubation, read-out: 60 min IC50, SHP2) [µM]	IC50 ([6]; 60-min preincubation, read-out: 60 min IC50, PTPN22) [µM]	IC50 ([7]; 60-min preincubation, read-out: 60 min IC50, PTP1B) [µM]	reactivity toward GSH (in words) [3]	half-life at 10 µM ([4]; pH 7, 100-fold excess GSH, 3,3-dimethylglutarate buffer pH 7.0, room temperature, read-out: half-life with GSH) [h]	IC50 ([5]; 10-min preincubation, read-out: SHP2 IC50, 10 min) [µM]	IC50 ([5]; 60-min preincubation, read-out: SHP2 IC50, 60 min) [µM]	IC50 ([6]; 10-min preincubation, read-out: PTPN22 IC50, 10 min) [µM]	IC50 ([6]; 60-min preincubation, read-out: PTPN22 IC50, 60 min) [µM]	IC50 ([7]; column headed 60 min (c7), read-out: PTP1B IC50, 60 min) [µM]
N#Cc1ccsc1NS(=O)(=O)c1ccc(NC(=O)CCl)cc1 [M029, 2-Chloro-N-(4-(N-(3-cyanothiophen-2-yl)sulfamoyl)phenyl)acetamide]	0.0038 ± 0.008	76.7 ± 12.5	49.55	13	319.31 ± 1.14 Da and 319.31 Da	5	34.3	58.2 ± 4.6	88.6 ± 20.1	152 ± 16.6	–	–	–	–	–	–	–
O=C(CCl)Nc1ccc(S(=O)(=O)Nc2nccs2)cc1 [Z57117023, 2-chloro-N-(4-(N-(thiazol-2-yl)sulfamoyl)phenyl)acetamide]	–	–	3.792	–	295.21 Da	–	~7.1	–	–	–	minimal reactivity toward GSH	7.07 ± 0.918	> 200	> 200	> 200	> 200	> 200
